# pIC50: −log10 of the molar value.
# Target: deoxycytidine kinase (dCK) (Homo sapiens, UniProt P27707)
# Assay: HTS hit
# Format: cell-based
smiles,measurement,value
COc1ccc(Br)cc1-c1nc(CSc2nc(N)cc(N)n2)cs1 [DI-0120],pIC50,5.85

# From PMC3949575 (The Journal of Experimental Medicine, 2014)
